Values after ≈ are worked out from the molar mass of the structure shown.
How the values were obtained:
B. subtilis DB104 = test: Inhibition of bacterial growth; settings: Bacillus subtilis, DB104, 24 h, read-out: MIC50 B. subtilis
GR from B. subtilis = GR from B. subtilis (Bacillus subtilis, UniProt P94556)
[1] = tested on: GR from B. anthracis (RacE1); type: biochemical; settings: RacE1, Figure 1
[2] = tested on: GR from B. anthracis (RacE2); type: biochemical; settings: RacE2, Figure 1
[3] = tested on: GR from F. tularensis (MurI); type: biochemical; settings: Figure 1

Chain of GR from B. subtilis (P94556 whole entry): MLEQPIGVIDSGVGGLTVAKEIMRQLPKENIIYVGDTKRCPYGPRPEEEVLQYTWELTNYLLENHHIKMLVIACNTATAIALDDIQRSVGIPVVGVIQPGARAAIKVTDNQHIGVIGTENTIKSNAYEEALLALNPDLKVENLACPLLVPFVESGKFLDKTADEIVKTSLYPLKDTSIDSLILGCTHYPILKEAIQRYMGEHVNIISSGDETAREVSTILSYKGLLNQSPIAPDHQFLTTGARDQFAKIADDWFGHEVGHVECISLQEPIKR

O=S(=O)(O)c1nc2ccccc2[nH]1 [Compound 2, 1H-benzimidazole-2-sulfonic acid]
MIC50 (B. subtilis DB104): 720 ± 60 µg/mL (≈ 3.63 mM)
LE (ligand efficiency) (GR from B. subtilis; Ki converted to binding energy, divided by number of non-hydrogen atoms): 0.53 kcal/mol/atom
LiPE (lipophilic efficiency) (GR from B. subtilis; from log(Ki) and logP calculated with MarvinSketch): 5.3
potency compared with GR from B. subtilis [1]: equal potency
potency compared with GR from B. subtilis [2]: equal potency
potency compared with GR from B. subtilis [3]: equal potency

Reference: article PMC4040332 (ChemMedChem, 2013)
